From patent US9809537B2, “Glycosidase inhibitors and uses thereof” (Alectos Therapeutics Inc., priority 2012, dated 2017)

Molecular target: T1, human O-GlcNAcase (Homo sapiens, UniProt O60502)
T1 sequence (O60502 1-916): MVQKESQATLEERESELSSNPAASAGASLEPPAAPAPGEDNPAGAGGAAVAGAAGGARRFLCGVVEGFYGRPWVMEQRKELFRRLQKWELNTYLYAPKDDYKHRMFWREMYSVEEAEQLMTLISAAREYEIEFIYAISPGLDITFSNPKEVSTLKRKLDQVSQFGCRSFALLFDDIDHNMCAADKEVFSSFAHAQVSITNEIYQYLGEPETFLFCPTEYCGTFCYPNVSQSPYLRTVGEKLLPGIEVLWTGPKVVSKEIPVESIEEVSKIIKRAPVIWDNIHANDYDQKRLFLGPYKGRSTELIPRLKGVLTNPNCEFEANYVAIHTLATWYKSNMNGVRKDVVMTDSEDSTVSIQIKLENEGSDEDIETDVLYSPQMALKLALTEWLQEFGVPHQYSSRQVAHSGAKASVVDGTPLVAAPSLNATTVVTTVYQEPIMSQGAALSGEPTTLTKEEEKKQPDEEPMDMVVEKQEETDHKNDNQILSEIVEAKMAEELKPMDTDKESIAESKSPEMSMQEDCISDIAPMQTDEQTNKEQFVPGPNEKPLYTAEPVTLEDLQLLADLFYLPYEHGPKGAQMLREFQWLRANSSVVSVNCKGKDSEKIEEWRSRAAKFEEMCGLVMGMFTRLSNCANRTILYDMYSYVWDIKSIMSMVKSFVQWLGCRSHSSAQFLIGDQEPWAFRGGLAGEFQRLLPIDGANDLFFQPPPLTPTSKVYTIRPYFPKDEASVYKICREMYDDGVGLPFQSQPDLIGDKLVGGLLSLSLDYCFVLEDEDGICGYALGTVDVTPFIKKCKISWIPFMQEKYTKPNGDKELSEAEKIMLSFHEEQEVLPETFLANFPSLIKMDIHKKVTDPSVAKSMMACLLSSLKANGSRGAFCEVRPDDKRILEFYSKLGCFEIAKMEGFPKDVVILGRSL
Assay: Fluorescence-based assay for KI values for inhibition of O-GlcNAcase activity
Type: biochemical
Settings: purified human O-GlcNAcase, 4-methylumbelliferyl GlcNAc substrate, pH 7.0, Cheng-Prusoff; read-out: Fluorescence-based hOGA Ki
Experimental: Assay for Determination of KI Values for Inhibition of O-GlcNAcase Activity
Experimental Procedure for Kinetic Analyses:
Enzymatic reactions were carried out in a reaction containing 50 mM NaH2PO4, 100 mM NaCl and 0.1% BSA (pH 7.0) using 2 mM 4-Methylumbelliferyl N-acetyl-β-D-glucosaminide dihydrate (Sigma M2133) dissolved in ddH2O, as a substrate. The amount of purified human O-GlcNAcase enzyme used in the reaction was 0.7 nM. Test compound of varying concentrations was added to the enzyme prior to initiation of the reaction. The reaction was performed at room temperature in a 96-well plate and was initiated with the addition of substrate. The production of fluorescent product was measured every 60 sec for 45 min with a Tecan Infinite M200 plate-reader with excitation at 355 nm and emission detected at […], with 4-Methylumbelliferone (Sigma M1381) used to produce a standard curve. The slope of product production was determined for each concentration of compound tested and plotted, using standard curve fitting algorithms for sigmoidal dose response curves. The values for a four parameter logistic curve fit of the data were determined.
KI values were determined using the Cheng-Prusoff equation; the Km of O-GlcNAcase for substrate was 0.2 mM.

Ki: 16 nM
SMILES: CC(=O)NC[C@@H]1[C@@H](O)[C@H](O)[C@@H](CO)N1CCCc1ccc(-c2ccccc2)cc1 [Example 3, N-(((2R,3R,4R,5R)-1-(3-([1,1′-biphenyl]-4-yl)propyl)-3,4-dihydroxy-5-(hydroxymethyl)pyrrolidin-2-yl)methyl)acetamide]
